Results published in the OPERA property sets (Mansouri et al. 2018).

logP | SMILES
2.38 | CCCOc1ccccn1
-0.23 | COC(=O)c1cnccn1
1.28 | CCOc1cnccn1
0.2 | CC(=O)c1cnccn1
1.71 | CSc1ccccn1
1.12 | CNc1ccccn1
0.93 | CN(C)c1cnccn1
1.81 | CCOc1ccccn1
0.73 | COc1cnccn1
0.28 | CCOC(=O)c1cnccn1
1.65 | CN(C)c1ccccn1
0.56 | CNc1cnccn1
1.17 | CSc1cnccn1
-0.8 | CN(C)C(=O)c1cnccn1
1.34 | COc1ccccn1
0.69 | CCc1cnccn1
0.84 | Fc1ccccn1
0.7 | Clc1cnccn1
-0.45 | CN(C)C(=O)c1ccccn1
0.29 | Fc1cnccn1
1.84 | CCCOc1cnccn1
-0.03 | CC(=O)Nc1cnccn1

SMILES | logP
N#Cc1cnccn1 | -0.01
